This note sets out measurements from patent US20100137313A1 (ASTRAZENECA AB, priority 2008, published 2010).

Sequence of S. pneumoniae Topoisomerase IV ATPase (ParE) (Q59961 whole entry): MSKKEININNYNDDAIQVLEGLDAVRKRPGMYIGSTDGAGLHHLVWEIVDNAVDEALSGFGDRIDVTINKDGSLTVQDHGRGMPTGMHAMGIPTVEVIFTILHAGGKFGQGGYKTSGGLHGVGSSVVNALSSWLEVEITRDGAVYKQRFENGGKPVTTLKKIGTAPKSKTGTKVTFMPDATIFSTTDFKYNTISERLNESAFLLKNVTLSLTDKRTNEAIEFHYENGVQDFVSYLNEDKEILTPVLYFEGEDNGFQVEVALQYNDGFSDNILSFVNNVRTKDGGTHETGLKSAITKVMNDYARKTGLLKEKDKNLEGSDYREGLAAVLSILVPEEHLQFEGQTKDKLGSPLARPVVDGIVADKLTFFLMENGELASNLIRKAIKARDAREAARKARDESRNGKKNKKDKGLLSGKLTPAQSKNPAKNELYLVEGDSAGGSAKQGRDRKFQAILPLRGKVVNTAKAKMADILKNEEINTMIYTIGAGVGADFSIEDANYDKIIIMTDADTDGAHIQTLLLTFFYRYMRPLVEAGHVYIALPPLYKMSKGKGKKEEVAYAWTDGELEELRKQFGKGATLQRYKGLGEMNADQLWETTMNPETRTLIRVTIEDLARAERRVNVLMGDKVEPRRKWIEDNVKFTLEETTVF

This assay addresses S. pneumoniae Topoisomerase IV ATPase (ParE) (Streptococcus pneumoniae serotype 4, UniProt Q59961). The assay can be described thus: S. pneumoniae Topoisomerase IV ATPase inhibition. The following applies: values marked * are an average of two or more data points, read-out: % Inh (13 μM) of S. pneumoniae Topoisomerase IV ATPase. In kind it is biochemical. The procedure, abridged: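 Phosphate-release ATPase assay: 1.25 nM ParE, 160 μM ATP, DNA-stimulated. Quench with malachite green/molybdate in 1 M HCl, read 650 nm; IC50 from 10-point dose series.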
Take `CNC(=O)CNC(=O)c1cncc(-c2cnc(Nc3ccc(F)c(Cl)c3)nc2-n2nc(C(F)(F)F)cc2C)c1` [Example 930, 5-(2-(3-chloro-4-fluorophenylamino)-4-(5-methyl-3-(trifluoromethyl)-1H-pyrazol-1-yl)pyrimidin-5-yl)-N-(2-(methylamino)-2-oxoethyl)nicotinamide]: the inhibition at 13 µM amounted to 72%.
For `O=C(O)[C@@H]1C[C@H]1c1cccc(-c2cnc(Nc3ccc(F)c(Cl)c3)nc2-n2ccc(C(F)(F)F)n2)c1` (racemic) [Example 574, (1,2-trans)-2-(3-(2-(3-chloro-4-fluorophenylamino)-4-(3-(trifluoromethyl)-1H-pyrazol-1-yl)pyrimidin-5-yl)phenyl)cyclopropanecarboxylic acid], the inhibition at 13 µM came out at 96%.
With `O=C(O)/C=C/c1cccc(-c2cnc(Nc3ccc(F)c(Cl)c3)nc2NCCc2nc3ccccc3[nH]2)c1` [Example 265, (2E)-3-[3-(4-{[2-(1H-benzimidazol-2-yl)ethyl]amino}-2-[(3-chloro-4-fluorophenyl)amino]pyrimidin-5-yl)phenyl]prop-2-enoic acid], the inhibition at 13 µM came out at 84.9%.
With `COc1ccc(-c2cnc(Nc3ccc(F)c(Cl)c3)nc2NCCCN(C)C)cc1C(F)(F)F` [Example 7, N^2-(3-chloro-4-fluorophenyl)-N^4-(3-(dimethylamino)propyl)-5-(4-methoxy-3(trifluoromethyl)phenyl)pyrimidine-2,4-diamine], the inhibition at 13 µM worked out at 98.7%.
The same measure for `CCn1cc(-c2cnc(Nc3cc(C)cc(OC)c3)nc2-n2nc(C(F)(F)F)cc2C)cc(C(=O)NS(C)(=O)=O)c1=O` [Example 1176, 1-ethyl-5-{2-[(3-methoxy-5-methylphenyl)amino]-4-[5-methyl-3-(trifluoromethyl)-1H-pyrazol-1-yl]pyrimidin-5-yl}-N-(methylsulfonyl)-2-oxo-1,2-dihydropyridine-3-carboxamide]: 100%.
In the case of `Cc1cc(C(F)(F)F)nn1-c1nc(Nc2ccc(F)c(Cl)c2)ncc1-c1cncnc1` [Example 70, N-(3-chloro-4-fluorophenyl)-4-[5-methyl-3-(trifluoromethyl)-1H-pyrazol-1-yl]-5,5′-bipyrimidin-2-amine], the inhibition at 13 µM stood at 86.6%.
Take `O=C(O)C1CCCN(c2cccc(-c3cnc(Nc4ccc(F)c(Cl)c4)nc3-n3ccc(C(F)(F)F)n3)c2)C1` (centres unmarked) [Example 601, 1-(3-{2-[(3-chloro-4-fluorophenyl)amino]-4-[3-(trifluoromethyl)-1H-pyrazol-1-yl]pyrimidin-5-yl}phenyl)piperidine-3-carboxylic acid]: the inhibition at 13 µM was 100%.
In the case of `O=C(O)c1cncc(-c2cnc(Nc3ccc(F)c(Cl)c3)nc2-n2cnc(C(F)(F)F)c2)c1` [Example 328, 5-{2-[(3-chloro-4-fluorophenyl)amino]-4-[4-(trifluoromethyl)-1H-imidazol-1-yl]pyrimidin-5-yl}pyridine-3-carboxylic acid], the inhibition at 13 µM was 70.8%.
Consider `COc1cc(C#N)cc(Nc2ncc(-c3cccc(/C=C/C(=O)O)c3)c(-n3nc(C(F)(F)F)cc3C)n2)c1` [Example 729, (2E)-3-(3-{2-[(3-cyano-5-methoxyphenyl)amino]-4-[5-methyl-3-(trifluoromethyl)-1H-pyrazol-1-yl]pyrimidin-5-yl}phenyl)prop-2-enoic acid], for which the inhibition at 13 µM amounted to 89%.
Turning to `O=C(O)/C=C/c1cccc(-c2cnc(Nc3ccc(F)c(Cl)c3)nc2-n2nccn2)c1` [Example 324, (2E)-3-(3-{2-[(3-chloro-4-fluorophenyl)amino]-4-(2H-1,2,3-triazol-2-yl)pyrimidin-5-yl}phenyl)prop-2-enoic acid], the inhibition at 13 µM turned out to be 76.9%.
To `CCOC(=O)c1sc(-c2cnc(Nc3ccc(F)c(Cl)c3)nc2NCCCOC)nc1-c1ccccc1` [Example 506, ethyl 2-{2-[(3-chloro-4-fluorophenyl)amino]-4-[(3-methoxypropyl)amino]pyrimidin-5-yl}-4-phenyl-1,3-thiazole-5-carboxylate] belongs 33%; to `COc1cc(Nc2ncc(-c3cnc(OC)nc3)c(NCCc3ccncc3)n2)cc(C(F)(F)F)c1` [Example 356, 2′-methoxy-N^2-(3-methoxy-5-(trifluoromethyl)phenyl)-N^4-(2-(pyridin-4-yl)ethyl)-5,5′-bipyrimidine-2,4-diamine], 86.5%; to `Cc1cc(C(F)(F)F)nn1-c1nc(Nc2ccc(F)c(Cl)c2)ncc1-c1cccc(/C=C/C(=O)O)c1` [Example 322, (2E)-3-(3-{2-[(3-chloro-4-fluorophenyl)amino]-4-[5-methyl-3-(trifluoromethyl)-1H-pyrazol-1-yl]pyrimidin-5-yl}phenyl)prop-2-enoic acid], 75%.
Turning to `CCCNc1nc(Nc2ccc(F)c(Cl)c2)ncc1-c1cncc(C(=O)O)c1` [Example 218, 5-[2-(3-Chloro-4-fluoro-phenylamino)-4-propylamino-pyrimidin-5-yl]-nicotinic acid], the inhibition at 13 µM amounted to 80.9%.
To `CN(C)CCCNc1nc(Nc2ccc(F)c(Cl)c2)ncc1-c1cncc(C(=O)O)c1` [Example 214, 5-(2-(3-chloro-4-fluorophenylamino)-4-(3-(dimethylamino)propylamino)pyrimidin-5-yl)nicotinic acid] belongs 101%; to `Cc1ccc(Nc2ncc(-c3cccc(/C=C/C(=O)O)c3)c(NCCCN(C)C)n2)cc1C#N` [Example 338, (E)-3-(3-(2-(3-cyano-4-methylphenylamino)-4-(3-(dimethylamino)propylamino)pyrimidin-5-yl)phenyl)acrylic acid], 58.4%.
`COc1cc(Nc2ncc(-c3cnc(OC)c(C(=O)NCCS(C)(=O)=O)c3)c(-n3ccc(C(F)(F)F)n3)n2)cc(OC)c1` [Example 813, 5-{2-[(3,5-dimethoxyphenyl)amino]-4-[3-(trifluoromethyl)-1H-pyrazol-1-yl]pyrimidin-5-yl}-2-methoxy-N-[2-(methylsulfonyl)ethyl]pyridine-3-carboxamide]: the inhibition at 13 µM amounted to 100%.
For `O=C(O)c1cc(-c2cnc(Nc3ccc(F)c(Cl)c3)nc2-n2ccc(C(F)(F)F)n2)cnc1OCCN1CCOCC1` [Example 1140, 5-(2-(3-chloro-4-fluorophenylamino)-4-(3-(trifluoromethyl)-1H-pyrazol-1-yl)pyrimidin-5-yl)-2-(2-morpholinoethoxy)nicotinic acid], the inhibition at 13 µM was 100%.
In the case of `CONC(=O)c1cncc(-c2cnc(Nc3ccc(F)c(Cl)c3)nc2NCCc2ccncc2)c1` [Example 477, 5-(2-[(3-chloro-4-fluorophenyl)amino]-4-{[2-(pyridin-4-yl)ethyl]amino}pyrimidin-5-yl)-N-methoxypyridine-3-carboxamide], the inhibition at 13 µM was 100%.
The same measure for `CN(C)CCCNc1nc(Nc2ccc(F)c(Cl)c2)ncc1-c1ccc(C(=O)N2CCCC(F)(F)C2)s1` [Example 370, (5-(2-(3-chloro-4-fluorophenylamino)-4-(3-(dimethylamino)propylamino)pyrimidin-5-yl)thiophen-2-yl) (3,3-difluoro-piperidin-1-yl) methanone]: 129%.
